The values below are quoted from earlier work in PubChem BioAssay AID1259409 (Chemical Carcinogenesis Research Information System (CCRIS), 2018).

This series relates to rodent chemically induced tumor inhibition, incidence and multiplicity. Briefly: CCRIS tumor inhibitor studies. The settings on record: Carcinogen: 7,12-DIMETHYLBENZ[A]ANTHRACENE; 57-97-6; Dose [Inhibitor]: 0; 100 UMOL/D IN 0.5 ML EMULPHOR EL-620 FOR 5 CONSECUTIVE DAYS BEGINNING AT 47 D OF AGE (STUDY DURATION: 155 D); Route [Inhibitor]: GAVAGE; Species: RAT; Strain/Sex: SPRAGUE-DAWLEY/FEMALE; Target Tissue: Type of Lesion: MAMMARY GLAND: TUMOR; Dose [Carcinogen]: 8 MG IN 1 ML SESAME OIL ONCE AT 50 D OF AGE; Promoter: NONE USED.

For the compound `CC(=O)[C@H]1C[C@@H]2C[C@H]1[C@@H](N=C=S)C2`, the “tumour outcome (control, treated, inhibition, significance)” value is listed as 17/25 (68%), 9/19 (47%), 31%, not significant.
